Biological target: PIK3CA (human) (UniProt P42336)
Experiment: Inhibition of PIK3CA Kinase Activity

PIK3CA (human), sequence (P42336 whole entry, looked up): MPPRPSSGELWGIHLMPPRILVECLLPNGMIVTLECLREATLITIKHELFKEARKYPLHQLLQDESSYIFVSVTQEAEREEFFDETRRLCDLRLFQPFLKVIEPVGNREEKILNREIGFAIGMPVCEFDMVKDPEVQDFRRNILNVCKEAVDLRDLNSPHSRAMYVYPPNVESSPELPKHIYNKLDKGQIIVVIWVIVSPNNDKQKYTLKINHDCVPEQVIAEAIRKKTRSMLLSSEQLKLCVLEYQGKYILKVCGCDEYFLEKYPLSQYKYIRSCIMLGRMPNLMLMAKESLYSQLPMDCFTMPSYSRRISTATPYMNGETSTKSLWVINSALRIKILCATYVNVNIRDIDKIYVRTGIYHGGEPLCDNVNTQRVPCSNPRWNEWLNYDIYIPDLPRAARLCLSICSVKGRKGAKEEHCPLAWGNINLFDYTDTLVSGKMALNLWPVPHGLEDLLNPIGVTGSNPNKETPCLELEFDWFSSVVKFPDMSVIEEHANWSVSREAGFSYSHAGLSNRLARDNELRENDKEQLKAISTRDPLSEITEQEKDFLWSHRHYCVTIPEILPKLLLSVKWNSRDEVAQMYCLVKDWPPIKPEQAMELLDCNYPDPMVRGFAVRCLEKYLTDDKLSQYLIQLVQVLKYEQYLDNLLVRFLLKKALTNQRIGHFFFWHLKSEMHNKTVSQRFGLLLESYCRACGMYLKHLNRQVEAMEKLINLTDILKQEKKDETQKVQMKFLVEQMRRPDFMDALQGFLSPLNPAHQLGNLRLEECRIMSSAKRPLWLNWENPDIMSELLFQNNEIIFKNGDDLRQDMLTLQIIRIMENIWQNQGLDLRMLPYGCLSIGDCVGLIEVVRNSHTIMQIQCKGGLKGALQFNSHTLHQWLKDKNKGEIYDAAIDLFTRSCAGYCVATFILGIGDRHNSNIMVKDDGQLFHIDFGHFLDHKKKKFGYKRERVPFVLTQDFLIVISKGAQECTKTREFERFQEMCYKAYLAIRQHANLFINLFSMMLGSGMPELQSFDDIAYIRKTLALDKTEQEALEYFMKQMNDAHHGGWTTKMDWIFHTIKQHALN

Structure (SMILES) | IC50
O=C(CCN1CCCCC1)N1CCC(n2cnc3c(-c4cccc5[nH]ccc45)nc(N4CCOCC4)nc32)CC1 | < 1 µM
CC1CCC(n2cnc3c(-c4cccc(O)c4)nc(N4CCOCC4)nc32)CC1 (stereo not drawn) | < 1 µM
CC(COC(C)(C)C)n1cnc2c(-c3cnc(N)nc3)nc(N3CCOCC3)nc21 (stereo not drawn) | < 1 µM
Cc1cccc(-n2cnc3c(-c4cccc(O)c4)nc(N4CCOCC4)nc32)c1 | < 1 µM
Oc1cccc(-c2nc(N3CCOCC3)nc3c2ncn3Cc2cccc(F)c2)c1 | < 1 µM
OCc1cccc(-c2nc(N3CCOCC3)nc3c2ncn3Cc2ccccc2)c1 | < 1 µM
Nc1ccc(Cn2cnc3c(-c4cccc(O)c4)nc(N4CCOCC4)nc32)cc1 | < 1 µM
CC(C1CC1)n1cnc2c(-c3cccc4[nH]ccc34)nc(N3CCOCC3)nc21 (stereo not drawn) | < 1 µM
CC1CCC(n2cnc3c(-c4cnc(N)nc4)nc(N4CCOCC4)nc32)CC1 (stereo not drawn) | < 1 µM
CC(C)n1cnc2c(-c3cccc4[nH]ccc34)nc(N3CCOCC3)nc21 | < 1 µM
c1nc2cc(-c3nc(N4CCOCC4)nc4c3ncn4CC3CC3)ccc2[nH]1 | < 1 µM
CCC(CC)n1cnc2c(-c3cnc(N)nc3)nc(N3CCOCC3)nc21 | < 1 µM
Nc1ccc(-c2nc(N3CCOCC3)nc3c2ncn3C2CCCC2)cn1 | < 1 µM
Oc1cccc(-c2nc(N3CCOCC3)nc3c2ncn3C2CCOC2)c1 (stereo not drawn) | < 1 µM
Oc1cccc(-c2nc(N3CCOCC3)nc3c2ncn3C2CCCCO2)c1 (stereo not drawn) | < 1 µM
O=C(Nc1ccc(Cl)cc1)N1CCC(n2cnc3c(-c4cccc5[nH]ccc45)nc(N4CCOCC4)nc32)CC1 | < 1 µM
COCC(C)n1cnc2c(-c3ccc(N)nc3)nc(N3CCOCC3)nc21 (stereo not drawn) | < 1 µM
Cc1nc(N)ncc1-c1nc(N2CCOCC2)nc2c1ncn2C(C)c1ccccc1 (stereo not drawn) | < 1 µM
CC(=O)Nc1cccc(Cn2cnc3c(-c4cccc(O)c4)nc(N4CCOCC4)nc32)c1 | < 1 µM
CCCCN1CCC(n2cnc3c(-c4cccc(O)c4)nc(N4CCOCC4)nc32)CC1 | < 1 µM
CCC(CC)n1cnc2c(-c3ccc(N)nc3)nc(N3CCOCC3)nc21 | < 1 µM
CC(C)(C)OC(=O)N1CCC(n2cnc3c(-c4cccc5[nH]ccc45)nc(N4CCOCC4)nc32)C1 (stereo not drawn) | < 1 µM
CCC(C)n1cnc2c(-c3cnc(NC)nc3)nc(N3CCOCC3)nc21 (stereo not drawn) | < 1 µM
Nc1ncc(-c2nc(N3CCOCC3)nc3c2ncn3C2CCc3ccccc3C2)cn1 (stereo not drawn) | < 1 µM
O=[N+]([O-])c1cccc(Cn2cnc3c(-c4cccc(O)c4)nc(N4CCOCC4)nc32)c1 | < 1 µM
COc1cccc(Cn2cnc3c(-c4cccc(O)c4)nc(N4CCOCC4)nc32)c1 | < 1 µM
CCSc1nc2c(-c3cccc(O)c3)nc(N3CCOCC3)nc2n1C(C)CC (stereo not drawn) | < 1 µM
c1cc(-c2nc(N3CCOCC3)nc3c2ncn3C2CCNCC2)c2cc[nH]c2c1 | < 1 µM

From the Kinase Knowledgebase extract (Sharma et al. 2016)
